The values below come from the pKa sets of Baltruschat and Czodrowski (2020).

In general, pKa refers to the negative logarithm of the acid dissociation constant. A low value points to a group that gives up its proton readily.

Consider `CCCCc1c(-c2ccccc2)n[nH]c1O`, for which the pKa (acidic group) is 8.2.

In turn, `C[S+](C)CC(=O)c1ccccc1` showed a pKa (acidic group) of 8.6.

For the setting “basic group”, `[NH3+]CCC(=O)NCCc1c[nH]cn1` returned a pKa of 6.84.

As to `O=Cc1ccc(O)c(O)c1`, the pKa (acidic group) worked out at 7.45.

Under “basic group”, `CCN(CC)CC(C)Nc1c2ccc(Cl)cc2nc2ccc(OC)cc12` (centres undefined) returned a pKa of 9.65.

With `CCN1CCCCC1`, for the setting “basic group”, the pKa amounted to 10.7.

Take `O=[N+]([O-])c1cccc2cnccc12`: the pKa (basic group) was 3.46.

`CCCC(C)C1(CC)C(=O)N=C([O-])NC1=O` (centres undefined) showed a pKa (acidic group) of 12.4.

As for `CCCCCN(CC(C)O)CC(C)O` (centres undefined), the pKa (basic group) is 9.

`O=C([O-])[C@@H]1C[C@@H](O)CN1`: the pKa (basic group) was 9.64.

Regarding `CN(C)CCBr`, the pKa (basic group) came to 7.55.

Compound `Nc1ncnc([S-])c1N` returned a pKa (basic group) of 9.34.

Regarding `Cc1cc(Br)ccc1N`, the pKa (basic group) was found to be 3.58.

`OC[C@H]1CCN2CCC[C@@H]12` displayed a pKa (basic group) of 10.9.

For `Nc1c([O-])cccc1O`, the pKa (acidic group) worked out at 11.6.

Consider `CN`, for which the pKa (basic group) came to 10.8.

In the case of `[S-]c1cnc2cncnc2n1`, the pKa (basic group) came out at 5.5.

In the case of `C=C(C)C(=O)NC(C)CN(C)C` (centres undefined), for the setting “basic group”, the pKa was 8.51.

Consider `CCN1CCCCC1C` (centres undefined), for which the pKa (basic group) was found to be 10.7.

In the case of `COc1ccc(S(=O)(=O)CCN2CCOCC2)c(OC)c1OC`, under “basic group”, the pKa was determined as 4.89.

Compound `O=C(O)c1ccc(C2CC2)cc1` registered a pKa (acidic group) of 4.42.

Consider `CN(C)CCCCCNC(=O)/C=N/[O-]`, for which, where the note is “basic group”, the pKa turned out to be 10.3.

`O=C1C=Cc2ccccc2/C1=N\O` gave a pKa (acidic group) of 7.77.

With `Cc1nnc(C)c(C)n1`, under “basic group”, the pKa was found to be 2.85.

`CCNCCN` returned a pKa (basic group) of 10.5.

Compound `COc1ccc(-c2cnc(-c3ccc(OC)cc3)o2)cc1` showed a pKa (basic group) of 1.41.

`Cn1ccc(=NC(=O)c2ccccc2)cc1` gave a pKa (basic group) of 9.89.

`CCCCCNc1ccccc1` showed a pKa (basic group) of 5.2.

Consider `c1ccc2nc3ccc4ccccc4c3cc2c1`, for which the pKa (basic group) turned out to be 4.39.

In turn, `C[Si](C)(C)CCCCC(=O)O` showed a pKa (acidic group) of 4.96.

As to `CC(C)c1ccccc1N`, the pKa (basic group) is 4.42.

In the case of `O=C(O)CC(c1ccccc1)c1ccccc1Cl` (centres undefined), the pKa (acidic group) stood at 4.7.

The compound `Nc1ccc(Cl)cc1Cl` showed a pKa (basic group) of 2.07.

On to `NNC(=O)c1cccnc1`, for which the pKa reads like this: (acidic group) 11.5; (basic group) 3.27.

Compound `[NH3+]c1ccccc1C(=O)O` displayed a pKa (acidic group) of 2.08.

Take `O=Cc1cc(-c2ccccc2)nnc1NCC[NH+]1CCOCC1`: the pKa (basic group) amounted to 2.6.

Consider `Cc1nc2ccccc2n1C`, for which, for the setting “basic group”, the pKa stood at 6.55.

In turn, `CC1=NCCS1` returned a pKa (basic group) of 5.29.

`CCNc1nnn[nH]1`: the pKa (acidic group) is 6.12.

Under “acidic group”, `COC(=O)CC(=N/[O-])/C(C)=N/O` registered a pKa of 11.6.

For `CCc1ccc([C@@H]2CCC[NH+]2C)cn1`, the pKa (basic group) stood at 3.69.

In turn, `Oc1cc(O)cc(O)c1` returned a pKa (acidic group) of 8.83.

For the compound `CCN(C)N(C)CC`, the pKa (basic group) was 6.8.

For the compound `Nc1ccc(S(=O)(=O)Nc2ccc(C(=O)O)cc2)cc1`, the pKa (acidic group) was determined as 4.02.

The compound `Nc1nc2c(o1)CCCC2` displayed a pKa (basic group) of 5.75.

Regarding `CC(C=C(c1cccs1)c1cccs1)N(C)C` (centres undefined), the pKa (basic group) was determined as 8.95.

Compound `CCN(CC)CCOCCN(C)C` showed a pKa (basic group) of 10.2.

Consider `O=C([O-])[C@@H]1CSCN1`, for which the pKa (basic group) is 6.14.

Consider `Cn1ccc2ccc3cccnc3c21`, for which the pKa (basic group) came to 4.36.

Regarding `Cc1cc(-c2ccc(N)c(C)c2)ccc1N`, the pKa (basic group) came to 4.64.

On to `O=C(O)[C@H]1CC[C@H](O)CC1`, for which the pKa (acidic group) was 4.68.

As to `C[NH+](C)C[C@H]1[C@@H]2CC[C@@](C)([C@H]1N)C2(C)C`, the pKa (basic group) came out at 6.59.

Under “basic group”, `CN(C)/C=N/c1ccccc1Cl` had a pKa of 6.85.

Under “basic group”, `O=C(CN1CCCCC1)NCc1ccccc1` registered a pKa of 7.71.

As to `C=CCN(C)CCCNC(=O)/C=N/[O-]`, for the setting “basic group”, the pKa is 9.5.

With `c1ccc(C(OCCN2CCCCC2)c2ccccc2)cc1`, under “basic group”, the pKa was determined as 8.03.

For the compound `Cc1ccc2c(c1)CCN2`, the pKa (basic group) was determined as 5.

As for `NC(CO)CO`, the pKa (basic group) was 8.63.
